Test results: US20240124483A1, “Methods for the Treatment of Fibrotic Disease” (SHY Therapeutics, LLC, priority 2021, published 2024)
Like-named read-outs stand apart in the source and are kept apart here.

Columns and labels:
[1] = system: Smad2/3 phosphorylation; assay: Phospho-Smad2/3 Inhibition Assay in Panc-1 (western blot); format: cell-based; conditions: Homo sapiens; 10 μM, 3 hours; PANC-1 stimulated with 10 ng/ml TGF-b1 for 1 hour; read-out: % inh of Smad2/3 phosphorylation in PANC-1
Procedure, shortened: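 Serum-starved cells (0.5% FBS overnight) pretreated 3 h at 37 °C with compound at 10 μM or serial dilutions for IC50, in 0.3% DMSO. TGF-b1 10 ng/ml stimulation: 1 h for Panc-1 (human), 20 min for C2C12 (mouse). Phospho-Smad2 (Ser465/467) and phospho-Smad3 (Ser423/425) measured by western blot of lysates.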

[2] = system: MiaPaca2; assay: MiaPaca2 proliferation; format: cell-based; conditions: Homo sapiens, MIA PaCa-2; for inhibition at 10 µM: read-out: % inh of proliferation in MiaPaca2
[3] = system: MAPK p38; assay: MAPK p38 Activation Assay in Panc-1 (western blot); format: cell-based, Human; design: key: Y = yes; N = No; conditions: at 10 μM
Procedure, shortened: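 Cells serum-starved overnight in 0.5% FBS, then compound 3 h at 37° C (10 μM or serial dilutions for IC50; 0.3% DMSO). TGF-b1 10 ng/ml stimulation followed: 1 h for Panc-1, 20 min for C2C12. Phospho-p38 (Thr180/Tyr182) measured by western blot of lysates.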

[4] = biological target: Rac-1 (Homo sapiens (Human), UniProt P63000); assay: Ras GTP Binding Domain Inhibition Assay, Rac-1; conditions: without SOS, read-out: Rac-1: % inh.
Procedure, shortened: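 Steps: coat His-tagged protein (10-30 μg/mL) on nickel wells overnight at 4° C; add test compound, 20 μM final or serial dilution, 1% DMSO, 3 h RT; optional Sos final hour; add 100 nM Cy3-GTP or Cy5-GTP, 45 min; wash and read fluorescence.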

[5] = biological target: KRas Q61H mutant (Homo sapiens (Human), UniProt P01116, Q61H); assay: Ras GTP Binding Domain Inhibition Assay, KRas Q61H mutant; conditions: 20 μM
Procedure, shortened: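 His-tagged GTPase immobilized on nickel-coated plates (10-30 μg/mL, overnight, 4° C), then exposed to compound (20 μM or serial dilution for IC50, 1% DMSO) for 3 h at room temperature, with or without His-tagged Sos (residues 556-1049) in the final hour. Bound Cy3-GTP or Cy5-GTP (100 nM, 45 min) was read by fluorescence after washing.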

[6] = + SOS, read-out: KRas Q61H mutant + SOS: % inh.
[7] = without SOS, read-out: KRas Q61H mutant: % inh.

Chain of KRas Q61H mutant (P01116 other isoform, or with tags, fused parts or gaps Q61H): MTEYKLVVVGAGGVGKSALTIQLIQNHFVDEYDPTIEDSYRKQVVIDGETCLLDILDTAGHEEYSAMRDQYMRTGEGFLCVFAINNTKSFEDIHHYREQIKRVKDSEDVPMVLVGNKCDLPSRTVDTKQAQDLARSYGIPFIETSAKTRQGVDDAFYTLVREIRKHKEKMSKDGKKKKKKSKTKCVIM

IC50 [2]	inhibition at 20 µM [4]	inhibition at 20 µM [5, 6]	inhibition at 20 µM [5, 7]	Structure (SMILES)	inhibition at 10 µM [1]	inhibition at 10 µM [2]	Activation of MAPK p38 in PANC-1 [3]
1 to 4.99 µM	46 to 75%	76 to 100%	46 to 75%	COc1nccc(-c2sc3nc(-c4nccn4C)nc(N[C@H]4C[C@H](OC)C4)c3c2-c2ccccc2)c1F [Compound 45, 6-(3-Fluoro-2-methoxypyridin-4-yl)-N-((1r,3r)-3-methoxycyclobutyl)-2-(1-methyl-1H-imidazol-2-yl)-5-phenylthieno[2,3-d]pyrimidin-4-amine]	76 to 100%	76 to 100%	N
1 to 4.99 µM	46 to 75%	76 to 100%	76 to 100%	COc1cc(-c2sc3nc(-c4nccn4C)nc(N[C@H]4C[C@H](OC)C4)c3c2-c2ccccc2)ccn1 [Compound 46, N-((1r,3r)-3-Methoxycyclobutyl)-6-(2-methoxypyridin-4-yl)-2-(1-methyl-1H-imidazol-2-yl)-5-phenylthieno[2,3-d]pyrimidin-4-amine]	76 to 100%	76 to 100%	N
